Measured values taken from PMC12627862, “Therapeutic targeting of endothelial calcium signaling accelerates the resolution of lung injury” (Signal Transduction and Targeted Therapy, 2025).
Starred links: 1 amine or outer side, 2 acyl side, 3 side chain; linkers in the order of their positions; H or OH if unused. Positions of bridges follow the written chain, without caps; N, C: chain ends. Non-standard residues stand in square brackets, D forms with d. Residues, ends and D or L forms follow the SMILES beside them. No end group written: not given here. ξ: configuration not given here. *: point of attachment. Oic = O=C(O)[C@@H]1C[C@@H]2CCCC[C@@H]2N1; X4 = C=C(C)C[C@@H](N[*:1])C(=O)[*:2]; dVal(3-OH) = CC(C)(O)[C@@H](N)C(=O)O; cisHyp = O=C(O)[C@@H]1C[C@H](O)CN1; tBuAla = CC(C)(C)C[C@H](N)C(=O)O; Myristoyl = CCCCCCCCCCCCCC(=O)*; R5 = C=CCCC[C@@](C)(N)C(=O)O; X1 = O=C(CC(O)CN[*:1])[*:2]; 4Amb = NCc1ccc(C(=O)O)cc1; ξP = O=C(O)C1CCCN1

Legend:
[1] = system: human primary microvascular lung endothelial cells (HLMVECs); assay: Peptide uptake in endothelial cells; assay type: cell-based
Experimental: We next analyzed the cell-penetrating properties of the selected compounds, hereafter referred to as vascular therapeutics (VT). The rate of uptake of 5’6-FAM (fluorescein)-labeled compounds by human primary microvascular lung endothelial cells (HLMVECs) was determined via confocal fluorescence live-cell imaging. FAM-labeled Myr-EBIN[13] and fluorescein alone were used as positive and negative controls, respectively. The t½ uptake and maximal uptake were determined from changes in the integrated fluorescence intensity over a 30 min period (Fig. 2a and Supplementary Fig. 1a). […] Like Myr-EBIN, compounds VT-107, -108 and -109 presented the highest uptake rates of 92.5 ± 5.0%, 82.5 ± 2.8% and 94.7 ± 4.9%, respectively, whereas the linear compound VT-101 was taken up less efficiently, with an average uptake of 58.4 ± 2.7% (Fig. 2a). […] The t½ uptake, however, varied between the tested compounds (Fig. 2b). The stapled compounds presented the shortest t½ uptake, whereas the linear compounds presented the longest t½ (Fig. 2b).
Peptide uptake in endothelial cells. The rate of peptide uptake by primary human microvascular endothelial cells was measured using 5’6FAM (fluorescein)-labeled peptides and confocal fluorescence live-cell imaging, with fluorescein alone used as a negative control. Changes in intracellular fluorescence for each peptide were monitored over time, and saponin, a detergent, was added at the end of the experiment to induce full uptake of the tested peptides by endothelial cells. The fluorescence intensity inside the cells was tracked over time, and the half-time uptake (t1/2) and maximum uptake were calculated.

[2] = Aggregation / solubility at 1 mM; assay type: physicochemical; conditions: summary calls it solubility at 1mM
Experimental: (§1) The solubilities of the synthesized compounds were determined experimentally (Supplementary Table 2). Most compounds were highly soluble at a 1 mM concentration; however, some compounds tended to form aggregates. These compounds were excluded from further studies. In addition, we experimentally determined the lipophilicity of each compound, logP(oct/wat)=log(soluteoct/solutewat ), which is the partition coefficient of a compound between aqueous (water) and lipophilic (octanol) phases (Supplementary Table 2).

[3] = Lipophilicity of peptides, logP(oct/wat); assay type: physicochemical
Experimental: as §1
Lipophilicity of peptides. Two separate solutions were obtained: an aqueous phosphate buffer with saturated n-octanol, and an n-octanol solution with saturated phosphate buffer. Peptides were then dissolved and diluted in the phosphate buffer. Different partitions were then made with different n-octanol to water ratio before shaking for an hour at room temperature. The aqueous phase and n-octanol were allowed to equilibrate, and each phase was extracted and analyzed for peptide concentrations. The ratio of peptide concentration in n-octanol to that in water is expressed as log(P).

[4] = target: EB3 interactions with IP3R3-GFP (Homo sapiens, UniProt Q9UPY8); assay: Competitive binding: inhibition of EB3 interaction with IP3R3-GFP in vitro; assay type: biochemical; conditions: for inhibition at 0.25 µM: 250 nM; for Competitive Binding at 250nM (% Inhibition): 0.25 µM
Sequence of EB3 interactions with IP3R3-GFP (Q9UPY8 whole entry): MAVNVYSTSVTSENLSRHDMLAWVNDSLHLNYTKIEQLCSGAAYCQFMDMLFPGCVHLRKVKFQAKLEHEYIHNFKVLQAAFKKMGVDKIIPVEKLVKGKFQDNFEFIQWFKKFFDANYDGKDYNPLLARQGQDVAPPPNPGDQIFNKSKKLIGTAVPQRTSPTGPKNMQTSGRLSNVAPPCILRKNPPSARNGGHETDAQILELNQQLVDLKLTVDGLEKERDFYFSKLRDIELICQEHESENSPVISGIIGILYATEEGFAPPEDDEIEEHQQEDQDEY
Source text: We tested the efficacy of twenty-three compounds in inhibiting EB3 interactions with IP3R3-GFP via an in vitro approach developed by us[12],[13]. […] Guided by NMR studies, we predicted the binding pose of 109 to EB3 via AutoDock Vina[13],[24],[25].

[5] = Stability of selected EB3 inhibitors in human blood plasma; assay type: in vitro ADME; conditions: human, plasma
Experimental: Supplementary Table 3. Stability of selected EB3 inhibitors in human blood plasma. The indicated inhibitors were incubated with human plasma at 37 °C and samples were taken at the indicated time points. Plasma proteins were precipitated with ice-cold perchloric acid (60%); the concentration of compounds was measured in supernatant using a liquid chromatography-tandem mass spectrometry (LC-MS/MS). See also Figures 1 and 2.

[6] = Stability at various storage conditions; assay type: physicochemical
Experimental: Stability assay of peptides in various storage conditions. Peptides were dissolved and stored in phosphate-buffered sterile saline at -20, 4, 37, and 60°C for 8 days. The amount of peptide remaining after the study was analyzed by LC-MS/MS.
Supplementary Table 5. Stability of selected compounds at various storage conditions. Preliminary accelerated storage stability at various temperature conditions for the selected inhibitors was tested in phosphate-buffered sterile saline at -20 °C, 4 °C, 37 °C and 60 °C for 8 days. See also Figures 1 and 2.

half-time uptake t1/2 [1] [min] | Aggregation at 1mM [2] | logD [3] | inhibition at 0.25 µM [4] [%] | Molecule | other results
8.56 ± 0.48 | weak signal | -0.3 | 40 | C=C(C)C[C@H](NC(=O)c1ccc(CNC(=O)CC(O)CN)cc1)C(=O)N1[C@H](C(=O)NCC(O)CC(=O)N[C@@H](CC(C)(C)C)C(=O)O)C[C@@H]2CCCC[C@@H]21 (stereo partly drawn) [compound 104, (2S)-2-(4-((2S,3aS,7aS)-1-((2S)-2-(4-((4-amino-3-hydroxybutanamido)methyl)benzamido)-4-methylpent-4-enoyl)octahydro-1H-indole-2-carboxamido)-3-hydroxybutanamido)-4,4-dimethylpentanoic acid.] | –
– | – | – | – | CCCCCCCCCCCCCC(=O)N[C@@H](Cc1ccccc1)C(=O)N[C@H](C(=O)N[C@@H](CCC(=O)O)C(=O)N[C@H](C(=O)N1CCC[C@H]1C(=O)N[C@H](C(=O)N[C@H](C(=O)O)[C@@H](C)CC)[C@@H](C)O)[C@@H](C)CC)[C@@H](C)O [Myr-EBIN, reference compound] (Myristoyl-FTEIPTI-OH) | remaining at 1.5 h [5]: 105%; remaining at 20 h [5]: 53%
9.58 ± 0.09 | weak signal | 0.52 | 41 | CC(C)(C)C[C@H](NC(=O)CC(O)CNC(=O)[C@@H]1C[C@@H]2CCCC[C@@H]2N1C(=O)[C@H](CC(C)(C)C)NC(=O)c1ccc(CNC(=O)[C@H](NC(=O)[C@H](N)Cc2ccccc2)C(C)(C)O)cc1)C(=O)O (stereo partly drawn) [compound 101, (2S)-2-(4-((2S,3aS,7aS)-1-((S)-2-(4-(((R)-2-((R)-2-amino-3-phenylpropanamido)-3-hydroxy-3-methylbutanamido)methyl)benzamido)-4,4-dimethylpentanoyl)octahydro-1H-indole-2-carboxamido)-3-hydroxybutanamido)-4,4-dimethylpentanoic acid.] (H-[dF][dVal(3-OH)][4Amb][tBuAla][Oic][X1][tBuAla]-OH) | penetration of the cell membrane [1]: able to penetrate the cell membrane without the addition of a cell internalization signal; storage stability [6]: stable; remaining at 1.5 h [5]: 87%; remaining at 20 h [5]: 85%
2.50 ± 0.06 | – | – | – | FTEIPTI [compound 000, (S)-4-((2S,3R)-2-((S)-2-amino-3-phenylpropanamido)-3-hydroxybutanamido)-5-(((2S,3S)-1-((S)-2-(((2S,3R)-1-(((1S,2S)-1-carboxy-2-methylbutyl)amino)-3-hydroxy-1-oxobutan-2-yl)carbamoyl)pyrrolidin-1-yl)-3-methyl-1-oxopentan-2-yl)amino)-5-oxopentanoic acid, reference compound] | Log P (Octanol/Water) [3]: 0.75; Competitive Binding at 250nM (% Inhibition) [4]: no inhibition; Competitive Binding at 250nM (% Inhibition) ([4]; listed as EBIN): did not
– | 0.35 | -0.19 | 36 | CC[C@H](C)[C@H](NC(=O)[C@@H](NC(=O)[C@@H]1C[C@H](O)CN1C(=O)[C@H](CC(C)(C)C)NC(=O)[C@H](CCC(=O)O)NC(=O)[C@H](NC(=O)[C@@H](N)Cc1ccccc1)C(C)(C)O)[C@@H](C)O)C(=O)O [compound 038, (S)-4-((R)-2-((S)-2-amino-3-phenylpropanamido)-3-hydroxy-3-methylbutanamido)-5-(((S)-1-((2S,4S)-2-(((2S,3R)-1-(((1S,2S)-1-carboxy-2-methylbutyl)amino)-3-hydroxy-1-oxobutan-2-yl)carbamoyl)-4-hydroxypyrrolidin-1-yl)-4,4-dimethyl-1-oxopentan-2-yl)amino)-5-oxopentanoic acid] (H-F[dVal(3-OH)]E[tBuAla][cisHyp]TI-OH) | –
– | weak signal | 0.44 | 12 | CC(C)(C)C[C@H](NC(=O)CC(O)CNC(=O)[C@@H]1C[C@@H]2CCCC[C@@H]2N1C(=O)[C@H](CC(C)(C)C)NC(=O)c1ccc(CNC(=O)[C@H](N)C(C)(C)O)cc1)C(=O)O (stereo partly drawn) [compound 103, (2S)-2-(4-((2S,3aS,7aS)-1-((S)-2-(4-(((R)-2-amino-3-hydroxy-3-methylbutanamido)methyl)benzamido)-4,4-dimethylpentanoyl)octahydro-1H-indole-2-carboxamido)-3-hydroxybutanamido)-4,4-dimethylpentanoic acid] (H-[dVal(3-OH)][4Amb][tBuAla][Oic][X1][tBuAla]-OH) | –
– | weak signal | -0.24 | 35 | CC[C@H](C)[C@H](NC(=O)[C@@H](NC(=O)[C@@H]1CCCN1C(=O)[C@@H](NC(=O)c1ccc(CNC(=O)[C@H](NC(=O)[C@@H](N)Cc2ccccc2)C(C)(C)O)cc1)[C@@H](C)CC)[C@@H](C)O)C(=O)O [compound 021, (4-(((R)-2-((S)-2-amino-3-phenylpropanamido)-3-hydroxy-3-methylbutanamido)methyl)benzoyl)-L-isoleucyl-L-prolyl-L-threonyl-L-isoleucine] (H-F[dVal(3-OH)][4Amb]IPTI-OH) | –
– | 0.18 | 0.71 | 30 | CC[C@H](C)[C@H](NC(=O)CC(O)CNC(=O)[C@@H]1[C@@H]2CCCC[C@@H]2CN1C(=O)[C@H](CC(C)(C)C)NC(=O)c1cccc(CNC(=O)[C@H](NC(=O)[C@@H](N)Cc2ccccc2)C(C)(C)O)c1)C(=O)O (stereo partly drawn) [compound 041, (4-((1S,3aS,7aR)-2-((S)-2-(3-(((R)-2-((S)-2-amino-3-phenylpropanamido)-3-hydroxy-3-methylbutanamido)methyl)benzamido)-4,4-dimethylpentanoyl)octahydro-1H-isoindole-1-carboxamido)-3-hydroxybutanoyl)-L-isoleucine] | –
– | 0.17 | -0.07 | 73 | C=C(C)C[C@H]1NC(=O)[C@](C)(NC(=O)[C@@H](CCC(=O)O)NC(=O)[C@H](N)[C@H](C)O)CCC/C=C\CCC[C@](C)(C(=O)N[C@H](C(=O)O)[C@@H](C)CC)NC(=O)[C@H]([C@@H](C)O)NC(=O)C2CCCN2C1=O (stereo partly drawn) [compound 052, (4R)-4-((2R,3S)-2-amino-3-hydroxybutanamido)-5-(((3S,6R,15R,18R,Z)-6-(((1S,2S)-1-carboxy-2-methylbutyl)carbamoyl)-3-((R)-1-hydroxyethyl)-6,15-dimethyl-18-(2-methylallyl)-1,4,16,19-tetraoxo-2,3,4,5,6,7,8,9,12,13,14,15,16,17,18,19,21,22,23,23a-icosahydro-1H-pyrrolo[1,2-d][1,4,7,10]tetraazacyclohenicosin-15-yl)amino)-5-oxopentanoic acid] (H-[dT][dE][R5][X4][ξP]T[R5]I-OH; staple (Z) 3-7) | –
